Data from patent US20200024223A1, “CRYSTALLINE SALTS OF (4S,4AS,5AR,12AS)-4-DIMETHYLAMINO-3,10,12,12A-TETRAHYDROXY-7-[(METHOXY(METHYL)AMINO)-METHYL]-1,11-DIOXO-1,4,4A,5,5A,6,11,12A-OCTAHYDRO-NAPHTHACENE-2-CARBOXYLIC ACID AMIDE AND METHODS OF USING THE SAME” (priority 2011, published 2020).
In brackets after ≈: the same amount, converted by molar mass. Several values for one entry are separate records, joined by “and”; a condition that tells them apart may be missing. Identical values can stand only once. Counter-ions that a name gives are not always drawn.

How the values were obtained:
[1] = Advantages and disadvantages of solid forms (hygroscopicity, milling/pressing, storage); type: physicochemical; settings: for Hygroscopicity: relative humidity (RH)
From the text: One measure of the stability of the physical form of the salt is hygroscopicity, which is the propensity of a substance to absorb or adsorb water molecules from the surrounding environment. Whenever moisture can promote degradation, the salt is stable if it is non-hygroscopic or mildly hygroscopic above 70% relative humidity (RH). In preferred embodiments, the salt is non-hygroscopic or mildly hygroscopic above 80% RH, and in more preferred embodiments, the salt is non-hygroscopic or mildly hygroscopic to 90% RH. “Non-hygroscopic or mildly hygroscopic” as used herein refers to a compound at about 40° C. and at an RH of about 75%, existing over about 80% w/w in solid crystalline form, preferably over about 90% w/w in solid crystalline form, that absorbs less than 10% w/w water, and preferably, less than 5% w/w water in 8 hours or less. Hygroscopicity (hygroscopic degree) is calculated based on increase in weight in a compound at comparative points of measurement. Another measure of physical stability is the crystal form of the salt, which may be measured by XPRD. The stability of Crystalline Mono Hydrochloride Salt was compared to the amorphous mono hydrochloride salt of Comparative Example 2.

[2] = XRPD analysis of crystal form after storage; type: physicochemical; settings: 7 days at 40° C. and 75% RH vs 0 days
Method: XRPD analysis as disclosed herein was collected on a Bruker AXS C2 GADDS diffractometer using Cu Kα radiation (40 kV, 40 mA), automated XYZ stage, laser video microscope for auto-sample positioning and a HiStar 2-dimensional area detector. X-ray optics consisted of a single Gbbel multilayer mirror coupled with a pinhole collimator of 0.3 mm. The software used for data collection was GADDS for WNT 4.1.16 and the data was analyzed and presented using Diffrac Plus EVA v 9.0.0.2 or v 13.0.0.2. Samples were analyzed under ambient conditions as flat plate specimens using powder as received. Approximately 1-2 mg of the sample was lightly pressed on a glass slide to obtain a flat surface. Samples analyzed under non-ambient conditions were mounted on a silicon wafer with a heat conducting compound. The sample was then heated to the appropriate temperature at approximately 20° C.min^−1 and subsequently held isothermally for approximately 1 minute before data collection was initiated.
HPLC-UV and XRPD analysis were conducted on samples of Crystalline Mono Hydrochloride Salt, Crystalline Mesylate Salt and Crystalline Sulfate Salt at 0 days and after storage for 7 days at 40° C. and 75% RH. FIGS. 1, 4 and 7 show the XRPD analysis of the Crystalline Mono Hydrochloride Salt, Crystalline Mesylate Salt and Crystalline Sulfate Salt at 0 days and after storage at 40° C. and 75% RH with the graphs overlaid for comparison. […] The changes shown in the figure are in intensity and resolution rather than in peak position, which, if present, would indicate change in crystal form. Accordingly, Crystalline Mono Hydrochloride Salt and Crystalline Mesylate Salt are physically stable, as shown by FIGS. 1 and 4.

[3] = Thermo-gravimetric analysis (TGA); type: physicochemical
Method: TGA is used to determine changes in weight in relation to change in temperature, which may reveal degradation of the compound and the presence of solvates or hydrates. TGA analysis as disclosed herein was collected on a TA Instruments Q500 TGA equipped with a 16 position auto-sampler. The instrument was temperature calibrated using certified Alumel and Nickel. […] A nitrogen purge at 60 ml.min^−1 was maintained over the sample. The instrument control and data analysis software used was Advantage for Q Series v2.8.0.392 and Thermal Advantage v4.8.3 and the data was analyzed using Universal Analysis v4.4A. […] The observed apparent weight loss is due to instability of the machine. Table 5 below compares the DSC and TGA analysis of the crystalline salts of the present invention with the crystalline free base and Comparative Example 1.

[4] = Storage stability by HPLC-UV (chemical purity, β-isomer content, total impurity content); type: physicochemical; settings: for Chemical Purity at 0 days / β-isomer content at 0 days: 0 days (after synthesis); for Chemical Purity at 75 days / β-isomer content at 75 days: stored in glass vial approximately 75 days at ambient conditions; for Chemical Purity at 7 days, 40° C. and 75% RH / β-isomer content at 7 days, 40° C. and 75% RH: storage 7 days at 40° C. and 75% RH
Method: The lower the β-isomer content, the higher the chemical purity of the salt. The β-isomer content is measured after synthesis of the salt and compared with the measured β-isomer content after storage for a designated period of time.
Another measure of chemical purity is defined by the content of other related impurities, by-products or degradation products of the salt, which represents the […] of the compound. The lower the content of total impurities as measured by HPLC, generally, by HPLC-UV, the higher the chemical purity of the salt. The total impurity content is measured after synthesis of the salt and compared with the measured total impurity content after storage for a designated period of time.
In order to determine the stability of Crystalline Mono Hydrochloride Salt, the β-isomer content of the salt was determined by HPLC-UV analysis and compared to the β-isomer content calculated after the salt was stored in an amber glass vial for approximately 75 days at ambient conditions.
The β-isomer content of Comparative Example 2 was also determined by HPLC-UV analysis at 0 days and compared to the β-isomer content calculated after the compound was stored in a clear glass vial for approximately 75 days at ambient conditions.
HPLC-UV and XRPD analysis were conducted on samples of Crystalline Mono Hydrochloride Salt, Crystalline Mesylate Salt and Crystalline Sulfate Salt at 0 days and after storage for 7 days at 40° C. and 75% RH. FIGS. 1, 4 and 7 show the XRPD analysis of the Crystalline Mono Hydrochloride Salt, Crystalline Mesylate Salt and Crystalline Sulfate Salt at 0 days and after storage at 40° C. and 75% RH with the graphs overlaid for comparison.
The results of HPLC-UV analysis for the same samples of Crystalline Mesylate Salt and Crystalline Sulfate Salt are shown in Table 4.

E. coli = test: In vitro MIC testing, antibacterial spectrum of activity; type: cell-based
S. agalactiae = test: as above; type: cell-based
S. pneumoniae = test: as above; type: cell-based, Streptococcus pneumoniae; settings: S. pneumoniae [PSSP] (32 isolates)
[5] = system: Streptococcus spp. [Group C]; test: as above; type: cell-based; settings: Streptococcus spp. [Group C] (30 isolates)
S. pyogenes = test: as above; type: cell-based; settings: S. pyogenes (32 isolates)
[6] = from about 30° C. to about 200° C.
[7] = from about 200° C. to about 250° C.

For CON(C)Cc1ccc(O)c2c1C[C@H]1C[C@H]3[C@H](N(C)C)C(O)=C(C(N)=O)C(=O)[C@@]3(O)C(O)=C1C2=O [Crystalline Mono Hydrochloride Salt, (4S,4aS,5aR,12aS)-4-dimethylamino-3,10,12,12a-tetrahydroxy-7-[(methoxy(methyl)amino)-methyl]-1,11-dioxo-1,4,4a,5,5a,6,11,12a-octahydro-naphthacene-2-carboxylic acid amide], the “β-isomer content upon storage under ambient conditions” value [1] was “No increase in β-isomer content”, the “form or β-isomer content upon milling or pressing” value [1] was “No change in form or β-isomer” and the “crystallinity upon pressing and milling” value ([1]; pressing and milling) was “Some loss of crystallinity upon”. For the same compound, the Hygroscopicity [1] was “Non-hygroscopic to 90% RH”, the “crystal form by XRPD after storage” value [2] was “no change in crystal form” and the TGA weight loss [3, 6] was 3% weight loss from about 30 °C to. For the same compound, the TGA weight loss [3, 7] was 14% weight loss from about 200 °C, the “total impurity content at 0 days” value ([4]; HPLC-UV, 0 days) was 4 % peak area and the “Chemical Purity at 0 days” value ([4]; HPLC-UV) was 93.8% and 95.8%. The “β-isomer content at 0 days” value ([4]; HPLC-UV) was 3.8%, the “Chemical Purity at 75 days” value ([4]; HPLC-UV) was 94.8% and the “β-isomer content at 75 days” value ([4]; HPLC-UV) was 3.8%. The “total impurity content after storage” value ([4]; about 6 months at about 40° C. and about 75% RH) was 6 % peak area.

Work on CC(=O)OCC1=C(C(=O)O)N2C(=O)[C@@H](NC(=O)Cc3cccs3)[C@H]2SC1 [Cephalothin] yielded an MIC50 (E. coli; Escherichia coli, read-out: MIC50) of 32 µg/mL (≈ 80.7 µM).

With CN(C)[C@@H]1C(O)=C(C(N)=O)C(=O)[C@@]2(O)C(O)=C3C(=O)c4c(O)cccc4[C@@](C)(O)[C@H]3C[C@@H]12 [Tetracycline, tetracycline] the “MIC Range” value (S. agalactiae; S. agalactiae [tetR] (7 isolates)) was 16 to 64 µg/mL, the “MIC Range” value (S. agalactiae; S. agalactiae [tetS] (3 isolates)) was 0.25-0.25 μg/mL and the “MIC Range” value (E. coli; E. coli [tetS] (7 isolates)) was 1 to 4 µg/mL.

With Penicillin the MIC50 (S. pneumoniae) was no more than 0.015 µg/mL, the “MIC Range” value (S. pneumoniae) was no more than 0.015 to 0.12 µg/mL and the MIC50 [5] was no more than 0.015 µg/mL. For the same compound, the MIC90 [5] was no more than 0.015 µg/mL, the “MIC Range” value [5] was no more than 0.015 to 0.03 µg/mL and the “MIC Range” value (S. agalactiae; S. agalactiae (31 isolates)) was no more than 0.015 to 2 µg/mL. For the same compound, the MIC50 (S. pyogenes) was no more than 0.015 µg/mL, the MIC90 (S. pyogenes) was no more than 0.015 µg/mL and the “MIC Range” value (S. pyogenes) was no more than 0.015 to 0.25 µg/mL.

For CON(C)Cc1ccc(O)c2c1C[C@H]1C[C@H]3[C@H](N(C)C)C(O)=C(C(N)=O)C(=O)[C@@]3(O)C(O)=C1C2=O [Crystalline Sulfate Salt, (4S,4aS,5aR,12aS)-4-dimethylamino-3,10,12,12a-tetrahydroxy-7-[(methoxy(methyl)amino)-methyl]-1,11-dioxo-1,4,4a,5,5a,6,11,12a-octahydro-naphthacene-2-carboxylic acid amide], the “crystal form by XRPD after storage” value [2] was “increased crystalline content”, the TGA weight loss [3, 6] was 3% weight loss from about 30 °C to and the TGA weight loss [3, 7] was 14% weight loss from about 200 °C. The “Chemical Purity at 0 days” value ([4]; HPLC-UV) was 88%, the “β-isomer content at 0 days” value ([4]; HPLC-UV) was 9% and the “Chemical Purity at 7 days, 40° C. and 75% RH” value ([4]; HPLC-UV) was 91%. The “β-isomer content at 7 days, 40° C. and 75% RH” value ([4]; HPLC-UV) was 9%.

For CON(C)Cc1ccc(O)c2c1C[C@H]1C[C@H]3[C@H](N(C)C)C(O)=C(C(N)=O)C(=O)[C@@]3(O)C(O)=C1C2=O [Crystalline Mesylate Salt, (4S,4aS,5aR,12aS)-4-dimethylamino-3,10,12,12a-tetrahydroxy-7-[(methoxy(methyl)amino)-methyl]-1,11-dioxo-1,4,4a,5,5a,6,11,12a-octahydro-naphthacene-2-carboxylic acid amide], the “crystal form by XRPD after storage” value [2] was “no change in crystal form”, the TGA weight loss [3, 6] was 3% weight loss from about 30 °C to and the TGA weight loss [3, 7] was 7% weight loss from about 200 °C. For the same compound, the “Chemical Purity at 0 days” value ([4]; HPLC-UV) was 92%, the “β-isomer content at 0 days” value ([4]; HPLC-UV) was 3% and the “Chemical Purity at 7 days, 40° C. and 75% RH” value ([4]; HPLC-UV) was 98%. The “β-isomer content at 7 days, 40° C. and 75% RH” value ([4]; HPLC-UV) was 2%.

For CON(C)Cc1ccc(O)c2c1C[C@H]1C[C@H]3[C@H](N(C)C)C(O)=C(C(N)=O)C(=O)[C@@]3(O)C(O)=C1C2=O [Comparative Example 2, (4S,4aS,5aR,12aS)-4-dimethylamino-3,10,12,12a-tetrahydroxy-7-[(methoxy(methyl)amino)-methyl]-1,11-dioxo-1,4,4a,5,5a,6,11,12a-octahydro-naphthacene-2-carboxylic acid amide], the glass transition [1] was “High glass transition (166° C.)”, the “β-isomer content upon storage at 63% RH” value ([1]; 63% RH) was “Increase in β-isomer content upon” and the “Change in form (amorphous to crystalline)” value ([1]; above 75% RH) was “Change in form (from amorphous”. For the same compound, the “β-isomer content upon storage under ambient conditions” value [1] was “Increase in β-isomer content upon”, the “rate of β-isomer formation upon exposure to solvent” value ([1]; compared to Crystalline Mono Hydrochloride Salt) was “Faster rate of β-isomer formation” and the “form or β-isomer content upon milling or pressing” value [1] was “Increase in β-isomer content upon”. The Hygroscopicity [1] was “Hygroscopic above 70% RH”, the “crystallization upon storage and heat/cool cycle” value ([1]; storage and heat/cool cycle) was “Stable to crystallization upon” and the “Chemical Purity at 0 days” value ([4]; HPLC-UV) was 94.3%. The “β-isomer content at 0 days” value ([4]; HPLC-UV) was 4.4%, the “Chemical Purity at 75 days” value ([4]; HPLC-UV) was 90.4% and the “β-isomer content at 75 days” value ([4]; HPLC-UV) was 7.8%. The “increase of β-isomer content after storage” value ([4]; storage for 75 days at ambient conditions vs 0 days) was “over 80%”.
